# Source: PubChem BioAssay AID2060623 (Molecular Pharmacology Branch, DTP, NCI, 2025)
# Where “and” joins values, the source holds several entries; their conditions need not be identical. Equal entries are not always repeated.
# Test system: 227483-062-R1-J1-PDC complex spheroids with HUVEC/MSC, viability
# Assay: Anticancer human tumor 227483-062-R1-J1-PDC patient-derived pancreatic carcinoma cell line growth inhibition [CLK]
# Conditions: for viability, T/C: stronger effect = lower value
# Source text: A high-throughput screen of multi-cell type tumor spheroids was designed to identify active combinations of […] and targeted small molecules. Complex spheroids include a stromal component modeled by human endothelial cells (HUVEC) and fibroblasts modeled by human mesenchymal stem cells (MSCs). The concentration ranges selected for each drug and investigational agent were based upon clinically achievable concentrations if the clinical Cmax of the agent was known.
# Compounds. The drugs and investigational agents: cirtuvivint (SM08502; NSC835563), CC-671 (NSC850746), vemurafenib (NSC761431), tapotoclax (NSC804041), sotorasib (NSC818433), adagrasib (NSC831453), MRTX-1133 (NSC836407), BAY2416964 (NSC825713), copanlisib (NSC816437), inavolisib (NSC800729), abemaciclib (NSC768073), osimertinib (NSC779217), entinostat (NSC756642), eltanexor (KPT-8602, NSC794443), venetoclax (NSC766270), ceralasertib (NSC777638), bortezomib (NSC756655), olaparib (NSC753686), talazoparib (NSC767125), alisertib (NSC759677), peposertib (NSC802822), gemcitabine (NSC613327), 5-fluorouracil (NSC19893), SN-38 (NSC673596), oxaliplatin (NSC266046), paclitaxel (NSC125973), and doxorubicin (NSC123127), were obtained from the National Cancer Institute (NCI) Developmental Therapeutics Program Chemical Repository. The FDA-approved anticancer drug set is available from the Developmental Therapeutics Program at https://dtp.cancer.gov/organization/dscb/obtaining/available plates.htm. […] The stock solutions were prepared in dimethyl sulfoxide (DMSO, Sigma-Aldrich, St. Louis, MO, cat. D2650), except for the platinum complexes which were prepared in saline (Quality Biological, Gaithersburg, MD, cat. 114-055-101), at 800-fold the tested concentration and stored at -70 degrees C prior to their use. All drugs and investigational agents were tested over a range starting from a high concentration at or near the clinical Cmax and decreasing in half-log increments. If the clinical Cmax for an agent had not been determined, the highest concentration tested was 10 microM.
# Cell Culture. All cells were maintained in an incubator at 37 degrees C and 5% CO2 with 95% humidity. The PDC lines were cultured according to standard operating procedures established by the NCI PDMR. Briefly, all PDCs were thawed and cultured in Matrigel-coated flasks prepared with a working solution of 1X Ham's F-12 nutrient mix, without supplementation (Invitrogen, Waltham, MA, cat. 11765054), 100 U/mL penicillin-streptomycin (Invitrogen, cat. 15140122), and 2.5% Matrigel (Corning Inc., Corning, NY, cat. 354248) for the first three passages. The 947758-054-R-J2-PDC line was cultured in 6B/Colon 1A media, which includes advanced DMEM/F-12 (Thermo Fisher Scientific, cat. 12634028), 10 mM HEPES (Thermo Fisher Scientific, cat. 15630080), 1X GlutaMAX supplement (Thermo Fisher Scientific, cat. 35050061), 0.1 mg/mL primocin (InvivoGen, cat. ant-pm-2), 10% defined fetal bovine serum, heat inactivated (HyClone Laboratories Inc., cat. SH30070.03HI), 1.25 mM N-Acetyl-L-cysteine (Sigma-Aldrich, cat. A9165), 10 mM nicotinamide (Sigma-Aldrich, cat. N0636), 1X B-27 supplement (Thermo Fisher Scientific, cat. 17504044), 1X N-2 supplement (Thermo Fisher Scientific, cat. 17502048), and 10 microM Y-27632 dihydrochloride (Tocris Bioscience, cat. 1254). The 876862-298-R-J1-PDC was cultured in 6E media, which includes all 6B/Colon 1A media components plus 50% L-WRN conditioned media (ATCC, cat. CRL-3276), 50 ng/mL recombinant human EGF recombinant protein (hEGF; Thermo Fisher Scientific, cat. PHG0311), 10 ng/mL recombinant human fibroblast growth factor 10 (hGFG-10; PeproTech, cat. 100-26), 1 ng/mL recombinant human fibroblast growth factor 2 (hFGF-2; PeproTech, cat. 100-18B), and 1 µM prostaglandin E2 (PGE2; Tocris, cat. 2296). The 227483-062-R1-J1-PDC line was cultured in Panc media, containing all 6E components except hFGF-2, with the addition of 500 nM SB-431542 (Selleckchem, cat. S1067) and 10 nM gastrin (Tocris, cat. 3006). […]
# 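Also: spheroids exposed to compounds for seven days before readout.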
# 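For viability, T/C in this document: percent of DMSO vehicle control luminescence as 100% viability.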
SMILES,"viability, T/C (compound 0.0316 µM)","viability, T/C (compound 0.1 µM)","viability, T/C (compound 0.316 µM)","viability, T/C (compound 1 µM)","viability, T/C (compound 3.16 µM)","viability, T/C (compound 10 µM)",IC50 (curve of compound),further results
C#Cc1c(F)ccc2cc(O)cc(-c3ncc4c(N5CC6CCC(C5)N6)nc(OCC56CCCN5CC(F)C6)nc4c3F)c12 (stereo not drawn),102% and 90.9%,93.7% and 102%,120% and 105%,130% and 104%,106% and 124%,98.6% and 78.4%,> 10000 nM,–
C=C(F)C(=O)N1CCN(c2nc(OCC3CCCN3C)nc3c2CCN(c2cccc4cccc(Cl)c24)C3)CC1CC#N (stereo not drawn),107% and 89.9%,108% and 97.9%,109% and 91.9%,113% and 122%,86.3% and 89%,19% and 28%,5880 nM and 6600 nM,–
C=CC(=O)N1CCN(c2nc(=O)n(-c3c(C)ccnc3C(C)C)c3nc(-c4c(O)cccc4F)c(F)cc23)C(C)C1 (stereo not drawn),88.6% and 88%,83.2% and 92.8%,86% and 85.4%,95.2% and 125%,110% and 104%,109% and 95.8%,> 10000 nM,–
C=CC(=O)Nc1cc(Nc2nccc(-c3cn(C)c4ccccc34)n2)c(OC)cc1N(C)CCN(C)C,–,–,–,–,–,–,> 300 nM,"viability, T/C (compound 0.000949 µM): 99.8% and 83%; viability, T/C (compound 0.003 µM): 104% and 92.1%; viability, T/C (compound 0.00949 µM): 103% and 119%; viability, T/C (compound 0.03 µM): 113% and 109%; viability, T/C (compound 0.0949 µM): 95.1% and 102%; viability, T/C (compound 0.3 µM): 84.3% and 81.2%"
CC(C)CC(NC(=O)C(Cc1ccccc1)NC(=O)c1cnccn1)B(O)O (stereo not drawn),–,–,–,–,–,–,1.57 nM and 1.5 nM,"viability, T/C (compound 0.000949 µM): 86.6% and 81.9%; viability, T/C (compound 0.003 µM): 2.59% and 1.33%; viability, T/C (compound 0.00949 µM): 0.56% and 0.57%; viability, T/C (compound 0.03 µM): 2.03% and 0.48%; viability, T/C (compound 0.0949 µM): 0.64% and 0.38%; viability, T/C (compound 0.3 µM): 0.96% and 0.35%"
CC(CO)NC(=O)c1cc(-c2ccc(Cl)cc2)nn(-c2cnn(C)c2)c1=O (stereo not drawn),100% and 88.3%,106% and 97.9%,95% and 100%,113% and 88.8%,88.7% and 108%,90.4% and 87%,> 10000 nM,–
CC(Nc1ccc2c(c1)OCCn1cc(N3C(=O)OCC3C(F)F)nc1-2)C(N)=O (stereo not drawn),89.1% and 95.7%,104% and 89.6%,82.3% and 76.5%,82.4% and 85.9%,69.8% and 72.3%,82.9% and 69.1%,> 10000 nM,–
CC1(C)CCC(CN2CCN(c3ccc(C(=O)NS(=O)(=O)c4ccc(NCC5CCOCC5)c([N+](=O)[O-])c4)c(Oc4cnc5[nH]ccc5c4)c3)CC2)=C(c2ccc(Cl)cc2)C1,92.4% and 103%,112% and 85.4%,95.4% and 94.4%,107% and 104%,106% and 112%,13.2% and 9.57%,6220 nM and 5970 nM,–
CC1COCCN1c1cc(C2(S(C)(=N)=O)CC2)nc(-c2ccnc3[nH]ccc23)n1 (stereo not drawn),98% and 93.4%,93.6% and 101%,89.4% and 103%,110% and 109%,86.9% and 78.7%,62.2% and 53.5%,> 10000 nM,–
CCCS(=O)(=O)Nc1ccc(F)c(C(=O)c2c[nH]c3ncc(-c4ccc(Cl)cc4)cc23)c1F,101% and 92.4%,128% and 96.7%,106% and 92.3%,125% and 99%,129% and 98.8%,107% and 80.7%,> 10000 nM,–
CCN1CCN(Cc2ccc(Nc3ncc(F)c(-c4cc(F)c5nc(C)n(C(C)C)c5c4)n3)nc2)CC1,92.8% and 79.4%,98.2% and 76.2%,95.1% and 73.4%,88.3% and 82%,–,–,> 1000 nM,"viability, T/C (compound 0.00316 µM): 93.6% and 83.6%; viability, T/C (compound 0.01 µM): 110% and 94.8%"
CCc1c2c(nc3ccc(O)cc13)-c1cc3c(c(=O)n1C2)COC(=O)[C@]3(O)CC,79.4% and 58.8%,55.3% and 49%,54.1% and 53%,36.8% and 33.1%,–,–,207 nM and 71.7 nM,"viability, T/C (compound 0.00316 µM): 77.7% and 88.3%; viability, T/C (compound 0.01 µM): 94.4% and 86.2%"
CN1CCN(c2cc(C(=O)Nc3cc4cc(-c5cnn(C)c5)ccc4cn3)ccn2)CC1,95.7% [middle of 12 runs],62.8% [middle of 12 runs],5.79% [middle of 12 runs],1.97% [middle of 12 runs],3.33% [middle of 12 runs],2.87% [middle of 12 runs],–,"IC50 (compound alone, run of 09/18/2023): 129 nM [middle of 11 runs]"
CNC(=O)c1ccc(Nc2nc(OC3CCCC3)c3c(-c4ccc5nc(C)oc5c4)c[nH]c3n2)c(OC)c1,96.1% [middle of 12 runs],88.2% [middle of 12 runs],85.1% [middle of 12 runs],61.6% [middle of 11 runs],45.4% [middle of 12 runs],42.9% [middle of 12 runs],–,–
COC1C=CCC(C)C(C)S(=O)(=O)NC(=O)c2ccc3c(c2)N(CC2CCC21)CC1(CCCc2cc(Cl)ccc21)CO3 (stereo not drawn),93.6% and 86.3%,93.9% and 81.1%,95.4% and 95.6%,106% and 91.1%,97.3% and 83.1%,25.9% and 22.8%,6770 nM and 5960 nM,–
COc1c(OCCCN2CCOCC2)ccc2c3n(c(=NC(=O)c4cnc(N)nc4)nc12)CCN3,85% and 72.6%,56.2% and 75.9%,55.8% and 59.5%,45.3% and 40.5%,–,–,> 1000 nM and 575 nM,"viability, T/C (compound 0.00316 µM): 92.4% and 100%; viability, T/C (compound 0.01 µM): 90.7% and 83.8%"
Cn1ncnc1[C@H]1c2n[nH]c(=O)c3cc(F)cc(c23)N[C@@H]1c1ccc(F)cc1,110% and 101%,104% and 98%,–,–,–,–,> 100 nM,"viability, T/C (compound 0.000316 µM): 93.6% and 98%; viability, T/C (compound 0.001 µM): 127% and 115%; viability, T/C (compound 0.00316 µM): 91.9% and 102%; viability, T/C (compound 0.01 µM): 120% and 97%"
NC(=O)C(=Cn1cnc(-c2cc(C(F)(F)F)cc(C(F)(F)F)c2)n1)c1cncnc1,–,–,–,–,–,–,911 nM and 313 nM,"viability, T/C (compound 0.00949 µM): 78.8% and 82.5%; viability, T/C (compound 0.03 µM): 85.2% and 85.8%; viability, T/C (compound 0.0949 µM): 83.2% and 62.7%; viability, T/C (compound 0.3 µM): 87.1% and 54.1%; viability, T/C (compound 0.949 µM): 48.8% and 28%; viability, T/C (compound 3 µM): 15% and 10.8%"
Nc1ccccc1NC(=O)c1ccc(CNC(=O)OCc2cccnc2)cc1,102% and 79.6%,107% and 81.1%,116% and 94.4%,121% and 101%,135% and 104%,87.6% and 71.5%,> 10000 nM,–
Nc1ccn(C2OC(CO)C(O)C2(F)F)c(=O)n1 (stereo not drawn),83.5% and 62.6%,43.6% and 29.8%,33.7% and 28.5%,37.7% and 30.3%,35.4% and 25.7%,23.9% and 20.4%,83.9 nM and 49.5 nM,–
O=C(c1cc(Cc2n[nH]c(=O)c3ccccc23)ccc1F)N1CCN(C(=O)C2CC2)CC1,98% and 94.5%,100% and 97.8%,101% and 98.4%,107% and 99.2%,114% and 91.3%,91.4% and 100%,> 10000 nM,–
O=c1[nH]cc(F)c(=O)[nH]1,103% and 83.9%,94.2% and 84.8%,97% and 96.9%,57%,44.8% and 48%,35.4% and 35.5%,1650 nM and 1700 nM,–
